From PubChem BioAssay (NCI)
“And” between values parts separate entries of the source, which are not always exact repeats. Equal entries are not always repeated.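 In this assay, cells in 96-well plates receive the compound at five concentrations for 48 hours. Endpoints are linearly interpolated between the surrounding concentrations. The concentration for 50% growth inhibition is given as GI50. TGI: concentration producing complete growth inhibition.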

What was measured:
Test in all cases: NCI-60 cell line screen, 48 h
SW-620 colon = test system: SW-620 colon
TK-10 renal = test system: TK-10 renal
HT29 colon = test system: HT29 colon
ACHN renal = test system: ACHN renal
HOP-62 NSCLC = test system: HOP-62 NSCLC
CCRF-CEM leukemia = test system: CCRF-CEM leukemia
UACC-62 melanoma = test system: UACC-62 melanoma
OVCAR-4 ovarian = test system: OVCAR-4 ovarian
HOP-92 NSCLC = test system: HOP-92 NSCLC
SR leukemia = test system: SR leukemia

Compound | TGI (SW-620 colon) | TGI (TK-10 renal) | TGI (HT29 colon) | TGI (ACHN renal) | TGI (HOP-62 NSCLC) | TGI (CCRF-CEM leukemia) | TGI (UACC-62 melanoma) | GI50 (OVCAR-4 ovarian) | TGI (OVCAR-4 ovarian) | GI50 (SW-620 colon) | GI50 (HOP-92 NSCLC) | TGI (HOP-92 NSCLC) | GI50 (TK-10 renal) | GI50 (HT29 colon) | GI50 (ACHN renal) | GI50 (HOP-62 NSCLC) | GI50 (CCRF-CEM leukemia) | GI50 (UACC-62 melanoma) | TGI (SR leukemia) | GI50 (SR leukemia)
CC1Cc2c(N)nc(NN)nc2NC1=O (stereo not drawn) | > 100 µM | > 100 µM | > 100 µM | > 100 µM | > 100 µM | > 100 µM | > 100 µM | – | – | – | – | – | – | – | – | – | – | – | – | –
CC(=O)OCC1OC(OC2CC3C(C)(C)C(OC(C)=O)CC[C@]3(C)C3CCC45CC4(CC[C@H]5C(C)CC(O)[C@@H](O)C(C)(C)O)[C@]23C)C(O)C(O)C1O (stereo partly drawn) | 14 µM and 13.7 µM | 14 µM and 26.5 µM | 14.3 µM and 10.6 µM | 14.3 µM and 29 µM | 11.8 µM and 25.9 µM | 14.8 µM and 15.4 µM | 12.2 µM and 16.5 µM | 13.4 µM | 12.7 µM and 26.1 µM | 3.54 µM | 4.05 µM | 13.1 µM and 11.7 µM | 13.6 µM | 3.37 µM | 15 µM | 12.1 µM | 4.07 µM | 4.9 µM | – | –
N#CC1=C(N)OC2=C(COc3ccc(F)cc32)C1c1ccc(Cl)cc1 (stereo not drawn) | > 100 µM | > 100 µM | > 100 µM | 93.5 µM | > 100 µM | > 100 µM | 42.6 µM | 78.3 µM | > 100 µM | 53.3 µM | 30.5 µM | > 100 µM | 43.1 µM | 50.4 µM | 22.9 µM | 38.3 µM | 55.5 µM | 18.5 µM | – | –
C=C1C(=O)O[C@@H]2C1C[C@@H](O)/C(C)=C/C/C=C(\C)CCC[C@H](C)[C@H]2OC(C)=O (stereo partly drawn) | 58.9 µM | 52.7 µM | > 100 µM | 42.6 µM | > 100 µM | 40.2 µM | 43.5 µM | 42.8 µM | > 100 µM | 26 µM | – | – | 24.2 µM | 40 µM | 21.3 µM | 45.4 µM | 21.2 µM | 22 µM | – | –
N#Cc1ccccc1NC(=O)/C(=N\NC(=O)c1ccncc1)C(c1cnc2ccc([N+](=O)[O-])cc2n1)[N+](=O)[O-] (stereo not drawn) | > 100 µM | > 100 µM | > 100 µM | > 100 µM | > 100 µM | > 100 µM | > 100 µM | – | > 100 µM | – | – | > 100 µM | – | – | – | – | – | – | – | –
O=[N+]([O-])c1ccc(Sc2c3ccccc3nc3ccccc23)cc1 | > 100 µM | – | > 100 µM | > 100 µM | > 100 µM | > 100 µM | > 100 µM | – | > 100 µM | – | – | – | – | – | – | – | – | – | – | –
COC1/C(=C\C(=O)OC(C)(C)C)c2ccccc2N1C(C)=O (stereo not drawn) | > 100 µM | – | > 100 µM | > 100 µM | > 100 µM | > 100 µM | > 100 µM | – | > 100 µM | – | – | – | – | – | – | – | – | – | > 100 µM | –
CCOC(=O)CCCn1c(SC)nc2cc(-c3ccco3)[nH]c2c1=O | > 100 µM | > 100 µM | > 100 µM | > 100 µM | > 100 µM | > 100 µM | 68.3 µM | > 100 µM | > 100 µM | > 100 µM | 25.6 µM | 65.7 µM | 35.1 µM | > 100 µM | 31.7 µM | 37 µM | > 100 µM | 22.5 µM | – | –
COc1ccccc1C1=C2C(=O)N(C)C(c3ccccc3OC)=C2C(=O)N1C | > 100 µM | > 100 µM | > 100 µM | > 100 µM | 43.9 µM | > 100 µM | > 100 µM | – | > 100 µM | – | – | > 100 µM | – | – | – | – | – | – | – | –
C[C@@H]1O[C@@H](O[C@@H]2[C@@H](O)[C@H](OCCc3ccc(O)c(O)c3)O[C@H](COC(=O)/C=C/c3ccc(O)c(O)c3)[C@H]2O)[C@H](O)[C@H](O)[C@H]1O | 37.9 µM | > 100 µM | – | > 100 µM | > 100 µM | – | > 100 µM | > 100 µM | > 100 µM | 18.7 µM | – | – | > 100 µM | – | > 100 µM | > 100 µM | – | > 100 µM | > 100 µM | 41.3 µM
CC(=O)NC1=C(Nc2ccc(C)cc2)C(=O)c2ccccc2C1=O | 27.7 µM | > 75 µM | 31.9 µM | 47.5 µM | 37.6 µM | 58.4 µM | 23 µM | – | 46.8 µM | – | – | – | – | – | – | – | – | – | – | –
CCOC(=O)Cc1csc(/N=C2\NC(=O)/C(=C3\C(=O)N(C)c4ccccc43)S2)n1 | > 100 µM | > 100 µM | > 100 µM | > 100 µM | 87.9 µM | 61.9 µM | 83.6 µM | 35.2 µM | > 100 µM | 52.1 µM | 52.3 µM | > 100 µM | 31.9 µM | 44.5 µM | 35.9 µM | 30.1 µM | 26.1 µM | 26.1 µM | – | –
C/C=C(\C)C(=O)N[C@H]1[C@@H](OC(C)=O)C[C@]2(C)C3CC[C@@]4(C)C(CC[C@@H]4C(C)N(C)C)C3CCC2[C@H]1O (stereo partly drawn) | 9.44 µM | 24.5 µM | 6.55 µM | 17.9 µM | 9.29 µM | 21.2 µM | 4.13 µM | 5.29 µM | 31.5 µM | 2.63 µM | 1.04 µM | 15.5 µM | 8.32 µM | 0.738 µM | 5.74 µM | 3.42 µM | 3.57 µM | 1.91 µM | – | –
Cn1nc(-c2ccccc2)c(N=[N+]=[N-])cc1=O | > 100 µM | > 100 µM | > 100 µM | > 100 µM | > 100 µM | > 100 µM | > 100 µM | – | > 100 µM | – | – | – | – | – | – | – | – | – | > 100 µM | –
Fc1ccc(Oc2nccc(-c3c(-c4ccc(F)cc4)ncn3C3CCNCC3)n2)cc1 | > 25 µM | > 25 µM | > 25 µM | > 25 µM | > 25 µM | – | > 25 µM | > 25 µM | > 25 µM | > 25 µM | – | – | > 19.9 µM | 14.7 µM | > 25 µM | > 25 µM | – | > 20.8 µM | – | –
Cn1ccc2c(NCCN)c3c(c(NCCN)c21)C(=O)c1ccccc1C3=O | 2.59 µM | 9.96 µM | > 44.8 µM | 9.04 µM | 2.72 µM | – | 5.86 µM | 9.46 µM | 30.8 µM | 0.514 µM | 0.718 µM | 2.58 µM | 2.53 µM | 7.77 µM | 2.5 µM | 0.35 µM | 0.371 µM | 2.17 µM | – | –
